Data from ChEMBL document CHEMBL4715789, “Identification of a Potential Antimalarial Drug Candidate from a Series of 2-Aminopyrazines by Optimization of Aqueous Solubility and Potency across the Parasite Life Cycle” (J Med Chem, 2016).
Converted amounts (≈) assume the structure as drawn.

Experiments:
[1] = Metabolic stability in mouse liver microsomes assessed as compound remaining at 0.1 uM measured after 30 mins in presence of cofactor NADPH by LC-MS/MS analysis; type: ADME, Microsome; conditions: read-out: Stabilty
Plasmodium berghei [2] = test: Antiplasmodial activity against Plasmodium berghei ANKA infected in NMRI mouse assessed as reduction in parasitemia at 3 mg/kg, po qd for 4 consecutive days measured at day 7 post infection by flow cytometry analysis; type: functional; parameters: scale not given: the % may be the effect or the level left; conditions: time 4 day
[3] = Metabolic stability in rat liver microsomes assessed as compound remaining at 0.1 uM measured after 30 mins in presence of cofactor NADPH by LC-MS/MS analysis; type: ADME, Microsome; conditions: read-out: Stabilty
[4] = Metabolic stability in human liver microsomes assessed as compound remaining at 0.1 uM measured after 30 mins in presence of cofactor NADPH by LC-MS/MS analysis; type: ADME, Microsome; conditions: read-out: Stabilty
[5] = Aqueous solubility of compound in pH 2 0.01M HCl incubated for 2 hrs under shaking condition by shake-flask method based HPLC-DAD analysis; type: physicochemical
Plasmodium falciparum [6] = test: microbe, parasite or virus in culture; conditions: NF54, Erythrocyte
Description: Antiplasmodial activity against multidrug-sensitive Plasmodium falciparum NF54 infected in human erythrocytes assessed as reduction in [3H]hypoxanthine incorporation preincubated for 48 hrs followed by [3H]hypoxanthine addition and measured after 24 hrs by liquid scintillation counting method

Plasmodium falciparum [7] = test: microbe, parasite or virus in culture; conditions: K1, Erythrocyte
Description: Antiplasmodial activity against multidrug-resistant Plasmodium falciparum K1 infected in erythrocytes assessed as reduction in [3H]hypoxanthine incorporation preincubated for 48 hrs followed by [3H]hypoxanthine addition and measured after 24 hrs by liquid scintillation counting method

[8] = Aqueous solubility of compound in pH 6.5 PBS incubated for 2 hrs under shaking condition by shake-flask method based HPLC-DAD analysis; type: physicochemical
Plasmodium berghei [9] = test: Antiplasmodial activity against Plasmodium berghei ANKA infected in NMRI mouse model assessed as mean survival days at 3 mg/kg, po qd for 4 consecutive day; type: functional; conditions: time 4 day
[10] = Cmax(app) in NMRI mouse plasma infected with Plasmodium berghei ANKA at 3 mg/kg, po qd for 4 consecutive days and measured post last dose; type: ADME, organism-based; conditions: time 4 day
Plasmodium berghei [11] = test: Antiplasmodial activity against Plasmodium berghei ANKA infected in NMRI mouse model assessed as mean survival days at 10 mg/kg, po qd for 4 consecutive day; type: functional; conditions: time 4 day
[12] = AUC(app) in NMRI mouse plasma infected with Plasmodium berghei ANKA at 3 mg/kg, po qd for 4 consecutive days and measured post last dose; type: ADME, organism-based; conditions: time 4 day
[13] = Apparent average plasma concentration in NMRI mouse plasma infected with Plasmodium berghei ANKA at 3 mg/kg, po qd for 4 consecutive days and measured post last dose; type: ADME, organism-based; conditions: in vivo, 96 h, time 4 day
[14] = target: Voltage-gated inwardly rectifying potassium channel KCNH2 (Homo sapiens, UniProt Q12809); test: Inhibition of human ERG by IonWorks patch clamp electrophysiology method
Sequence of Voltage-gated inwardly rectifying potassium channel KCNH2 (Q12809 whole entry): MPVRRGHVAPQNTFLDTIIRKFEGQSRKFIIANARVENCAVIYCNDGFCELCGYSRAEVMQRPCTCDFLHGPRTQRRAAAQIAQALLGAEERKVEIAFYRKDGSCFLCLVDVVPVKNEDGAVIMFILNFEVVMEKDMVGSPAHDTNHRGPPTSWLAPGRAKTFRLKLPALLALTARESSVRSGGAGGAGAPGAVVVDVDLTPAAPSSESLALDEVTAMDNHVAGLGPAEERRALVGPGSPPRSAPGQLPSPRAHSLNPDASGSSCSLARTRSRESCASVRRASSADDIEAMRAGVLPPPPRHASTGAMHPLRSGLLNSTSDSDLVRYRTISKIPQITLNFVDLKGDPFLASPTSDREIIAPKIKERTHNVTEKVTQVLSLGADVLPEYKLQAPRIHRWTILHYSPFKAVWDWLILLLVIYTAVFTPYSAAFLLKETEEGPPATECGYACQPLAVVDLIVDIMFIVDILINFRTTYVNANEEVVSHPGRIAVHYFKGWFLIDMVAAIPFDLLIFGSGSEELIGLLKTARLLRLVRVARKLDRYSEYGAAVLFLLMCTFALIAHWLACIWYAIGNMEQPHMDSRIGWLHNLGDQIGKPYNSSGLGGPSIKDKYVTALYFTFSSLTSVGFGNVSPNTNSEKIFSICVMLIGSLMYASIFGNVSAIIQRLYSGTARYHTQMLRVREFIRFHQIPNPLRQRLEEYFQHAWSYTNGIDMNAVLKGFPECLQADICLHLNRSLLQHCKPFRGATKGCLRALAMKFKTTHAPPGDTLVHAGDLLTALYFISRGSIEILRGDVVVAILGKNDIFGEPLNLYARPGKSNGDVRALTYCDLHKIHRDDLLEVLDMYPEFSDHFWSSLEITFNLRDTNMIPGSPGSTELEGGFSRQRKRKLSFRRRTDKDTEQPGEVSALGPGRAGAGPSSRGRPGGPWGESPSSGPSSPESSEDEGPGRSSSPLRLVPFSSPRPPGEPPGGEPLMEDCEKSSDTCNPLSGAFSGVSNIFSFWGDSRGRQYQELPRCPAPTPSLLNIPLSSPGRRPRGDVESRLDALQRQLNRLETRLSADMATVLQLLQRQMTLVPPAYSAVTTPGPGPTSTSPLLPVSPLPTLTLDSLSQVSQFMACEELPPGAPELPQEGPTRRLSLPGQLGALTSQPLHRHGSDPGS

Compound	remaining at 0.5 h, 0.1 µM [1]	Activity (Plasmodium berghei [2])	remaining at 0.5 h, 0.1 µM [3]	remaining at 0.5 h, 0.1 µM [4]	solubility thermodynamic at 2 h [5]	IC50 (Plasmodium falciparum [6])	IC50 (Plasmodium falciparum [7])	solubility thermodynamic at 2 h [8]	MSD (Plasmodium berghei [9])	Cmax [10]	MSD (Plasmodium berghei [11])	AUC at 96 h [12]	Cave [13]	IC50 [14]
Nc1ncc(-c2ccc(C(=O)N3CCNCC3)cc2)nc1-c1ccc(C(F)(F)F)nc1	> 90%	<40%	> 90%	> 90%	200 µM (≈ 85.7 µg/mL)	9.1 nM	7.7 nM	198 µM (≈ 84.8 µg/mL)						
N#Cc1ccc(-c2cnc(N)c(-c3ccc(C(N)=O)cc3)n2)cc1						57 nM	44 nM							
Nc1ncc(-c2ccc(C(=O)N3CCC(N)CC3)cc2)nc1-c1ccc(C(F)(F)F)cc1		65%			200 µM (≈ 88.3 µg/mL)	10 nM	7.5 nM	88 µM (≈ 38.8 µg/mL)	7 days					
Nc1ccc(-c2nc(-c3ccc(C(=O)N4CCNCC4)cc3)cnc2N)cn1					189 µM (≈ 71 µg/mL)	51 nM	37 nM	186 µM (≈ 69.8 µg/mL)						
Nc1ncc(-c2ccc(C(=O)N3CCC(O)C3)cc2)nc1-c1ccc(C(F)(F)F)nc1 (stereo not drawn)		61%			200 µM (≈ 85.9 µg/mL)	18 nM	12 nM	155 µM (≈ 66.6 µg/mL)	7 days					
CN1CCN(C(=O)c2ccc(-c3cnc(N)c(-c4ccc(C(F)(F)F)cc4)n3)cc2)CC1	> 90%		> 90%	> 90%		7.9 nM	6.8 nM		12 days	1600 nM	26 days			
Nc1ncc(-c2ccc(C(=O)N3CCCNCC3)cc2)nc1-c1ccc(C(F)(F)F)nc1		55%			200 µM (≈ 88.5 µg/mL)	12.7 nM	10.2 nM	146 µM (≈ 64.6 µg/mL)	7 days					
Nc1ncc(-c2ccc(C(=O)N3CCC(O)C3)cc2)nc1-c1ccc(C(F)(F)F)cc1 (stereo not drawn)	> 90%	99.6%	> 90%	> 90%	129 µM (≈ 55.3 µg/mL)	9.6 nM	6.8 nM	77 µM (≈ 33 µg/mL)	8 days	3610 nM		34.7 µM·h	2060 nM	
NC(=O)c1ccc(-c2cnc(N)c(-c3ccc(C(F)(F)F)nc3)n2)cc1	> 90%		> 90%	> 90%	< 5 µM	20 nM	16 nM	< 5 µM	7.7 days	5000 nM	14 days	69.3 µM·h	2900 nM	
COC(=O)c1ccc(-c2cnc(N)c(-c3ccc(C(F)(F)F)cc3)n2)cc1					< 5 µM	2630 nM		< 5 µM						
CN1CCCN(C(=O)c2ccc(-c3cnc(N)c(-c4ccc(C(F)(F)F)cc4)n3)cc2)CC1		90%			200 µM (≈ 91.1 µg/mL)	6.8 nM	5.7 nM	152 µM (≈ 69.2 µg/mL)	7 days					5000 nM
CC(C)(C)N1CCN(C(=O)c2ccc(-c3cnc(N)c(-c4ccc(C(F)(F)F)nc4)n3)cc2)CC1		88%			200 µM (≈ 96.9 µg/mL)	8.9 nM	6.4 nM	113 µM (≈ 54.8 µg/mL)	14 days	1520 nM		4.34 µM·h	570 nM	
N#Cc1ccc(-c2cnc(N)c(-c3ccc(C(F)(F)F)nc3)n2)nc1						2710 nM								
Nc1ncc(-c2ccc(C(=O)N3CCC(N)CC3)cc2)nc1-c1ccc(C(F)(F)F)nc1		41%			200 µM (≈ 88.5 µg/mL)	20 nM	18 nM	163 µM (≈ 72.1 µg/mL)	6 days					
NC(=O)c1ccc(-c2cnc(N)c(-c3ccc(C(F)(F)F)nc3)n2)nc1					123 µM (≈ 44.3 µg/mL)	1580 nM		< 5 µM						
